Laboratory results from patent publication US20080153891A1, “SYNERGISTIC ANTI-CANCER COMPOSITIONS” (The Arizona Board of Regents, priority 2003, published 2008).

How the values were obtained:
A375 cells = experiment: Combination cytotoxicity with imexon, SRB assay, combination index (median-effect); assay type: cell-based, human; conditions: in combination with imexon at fixed constant ratio, 5 days after drugging, classified by combination index
8226/s cells = experiment: Combination cytotoxicity with imexon, MTT assay, combination index (median-effect); assay type: cell-based, human; conditions: in combination with imexon at fixed constant ratio, 5 days after drugging, classified by combination index
[1] = Toxicology study in non-tumor bearing (normal) mice
Method: A toxicology study was performed in non-tumor bearing (i.e., normal) mice given imexon (100 mg/kg/day×9 days) with either gemcitabine (180 mg/kg days 1, 5 and 9) or cytarabine (800 mg/kg days 1, 4 and 7). The tests were conducted to evaluate whether there was increased bone marrow toxicity or decreased renal and hepatic function for imexon combined with either agent.

| Structure (SMILES) | Effect of second antineoplastic agent in combination with imexon, A375 CELL LINE (A375 cells) | Effect of second antineoplastic agent in combination with imexon, 8226/S CELL LINE (8226/s cells) | Mean Platelet Counts (SD), Day 10 ([1]; Day 10, imexon 100 mg/kg days 1-9, cytarabine 800 mg/kg days 1, 4, 7, gemcitabine 180 mg/kg days 1, 5, 9) | Mean Platelet Counts (SD), Day 12 ([1]; Day 12, imexon 100 mg/kg days 1-9, cytarabine 800 mg/kg days 1, 4, 7, gemcitabine 180 mg/kg days 1, 5, 9) | number of red blood cells ([1]; imexon 100 mg/kg/day x 9 days) |
| --- | --- | --- | --- | --- | --- |
| N.N.[Cl][Pt][Cl] [cisplatin] | Synergistic (Where the combination index is less than 1, synergism is indicated) | Synergistic (Where the combination index is less than 1, synergism is indicated) |  |  |  |
| C[C@@H]1C[C@H]2[C@@H]3CCC4=CC(=O)C=C[C@]4(C)[C@@]3(F)[C@@H](O)C[C@]2(C)[C@@]1(O)C(=O)CO [dexamethasone] | Additive (Where the combination index is equal to 1, summation (also commonly referred to as additivity) is indicated) | Antagonistic (Where the combination index is greater than 1, antagonism is indicated) |  |  |  |
| CC(=O)O[C@H]1C(=O)[C@@]2(C)[C@H]([C@H](OC(=O)c3ccccc3)[C@]3(O)C[C@H](OC(=O)[C@H](O)[C@@H](NC(=O)c4ccccc4)c4ccccc4)C(C)=C1C3(C)C)[C@]1(OC(C)=O)CO[C@@H]1C[C@@H]2O [paclitaxel] | Additive (Where the combination index is equal to 1, summation (also commonly referred to as additivity) is indicated) | Antagonistic (Where the combination index is greater than 1, antagonism is indicated) |  |  |  |
| CCC1=C[C@@H]2CN(C1)Cc1c([nH]c3ccccc13)[C@@](C(=O)OC)(c1cc3c(cc1OC)N(C)[C@H]1[C@@](O)(C(=O)OC)[C@H](OC(C)=O)[C@]4(CC)C=CCN5CC[C@]31[C@@H]54)C2 [vinorelbine] | Additive (Where the combination index is equal to 1, summation (also commonly referred to as additivity) is indicated) | Additive (Where the combination index is equal to 1, summation (also commonly referred to as additivity) is indicated) |  |  |  |
| CN(Cc1cnc2nc(N)nc(N)c2n1)c1ccc(C(=O)N[C@@H](CCC(=O)O)C(=O)O)cc1 [methotrexate] | Antagonistic (Where the combination index is greater than 1, antagonism is indicated) | Antagonistic (Where the combination index is greater than 1, antagonism is indicated) |  |  |  |
| N=C1NC(=O)N2CC12 (stereo not shown) [Imexon, 4-imino-1,3-diazabicyclo[3.1.0]-hexan-2-one] |  |  | 880 (180) × 1000/μL | 920 (138) × 1000/μL | increased slightly |
| CN(C)/N=N/c1[nH]cnc1C(N)=O [dacarbazine (DTIC), dacarbazine] | Synergistic (Where the combination index is less than 1, synergism is indicated) | Synergistic (Where the combination index is less than 1, synergism is indicated) |  |  |  |
| Nc1ccn([C@@H]2O[C@H](CO)[C@@H](O)C2(F)F)c(=O)n1 [gemcitabine] | Synergistic (Where the combination index is less than 1, synergism is indicated) | Synergistic (Where the combination index is less than 1, synergism is indicated) |  |  |  |
| O=c1[nH]cc(F)c(=O)[nH]1 [5-fluorouracil] | Synergistic (Where the combination index is less than 1, synergism is indicated) | Synergistic (Where the combination index is less than 1, synergism is indicated) |  |  |  |
| Nc1ccn([C@@H]2O[C@H](CO)[C@@H](O)[C@@H]2O)c(=O)n1 [cytarabine] | Synergistic (Where the combination index is less than 1, synergism is indicated) | Synergistic (Where the combination index is less than 1, synergism is indicated) |  |  |  |
| CC(=O)O[C@@]12CO[C@@H]1C[C@H](O)[C@@]1(C)C(=O)[C@H](O)C3=C(C)[C@@H](OC(=O)[C@H](O)[C@@H](NC(=O)OC(C)(C)C)c4ccccc4)C[C@@](O)([C@@H](OC(=O)c4ccccc4)[C@H]21)C3(C)C [taxotere, docetaxel] | Synergistic (Where the combination index is less than 1, synergism is indicated) | Synergistic (Where the combination index is less than 1, synergism is indicated) |  |  |  |
| COc1cccc2c1C(=O)c1c(O)c3c(c(O)c1C2=O)C[C@@](O)(C(=O)CO)C[C@@H]3O[C@H]1C[C@H](N)[C@H](O)[C@H](C)O1 [doxorubicin] | Antagonistic (Where the combination index is greater than 1, antagonism is indicated) | Antagonistic (Where the combination index is greater than 1, antagonism is indicated) |  |  |  |
